Measurements from article PMC8742467, “Therapeutical interference with the epigenetic landscape of germ cell tumors: a comparative drug study and new mechanistical insights” (Clinical Epigenetics, 2022).

Key:
GCT cell lines = test: XTT cell viability assay, GCT cell lines (pre-screen / summary); format: cell-based, Human; settings: first pre-screen, XTT; read-out: EC50
Experimental: The […] (XTT) assays were performed as described previously. In summary, for GCT and fibroblast cell lines 5 × 10^3 cells (3 × 10^3 for UC, PCa and RCC cell lines) per 96-well were seeded and different drug concentrations (see Additional file 2: Fig. S2, Additional file 3: Fig. S3) or corresponding solvents were added to the cells the following day. For drug details see Additional file 12: Table S2 C. Each condition was analyzed in four technical replicates and EC50 values were calculated by GraphPad Prism v8.

CC (JAR) = test: Flow cytometry apoptosis (Annexin V/PI), CC; format: cell-based, Human; settings: EC50, 16 h
Experimental: (§1) For Annexin V/PI staining, cells were washed with Annexin V Binding Buffer before being resuspended in 70 µl Annexin V Binding Buffer and 2.5 μl Annexin V FITC-conjugate (both Miltenyi Biotec, Bergisch Gladbach, Germany) and 15 µg PI (Sigma-Aldrich, Taufkirchen, Germany) and incubated in the dark at room temperature for 15 min. 500 µl of Annexin V Binding Buffer was added before measurement. For the cell cycle analysis, cells were washed with PBS (phosphate buffered saline), fixed by ice cold 70% ethanol and stained with 2 µg/ml PI and 200 µg/ml RNaseA (Quiagen, Hilden, Germany 100 mg/ml) in PBS shortly before every measurement. At least 5 × 10^4 cells were counted and analyzed using the MACSQuant software v 2.13.0.

YST (GCT72) = test: Flow cytometry apoptosis (Annexin V/PI), YST; format: cell-based, Human; settings: EC50, 16 h
Experimental: as §1

2102EP-R = test: Flow cytometry apoptosis (Annexin V/PI), 2102EP-R; format: cell-based, Human; settings: EC50, 16 h, compared to the parental cell line
GCT cells = test: Flow cytometry cell cycle (PI), GCT cells; format: cell-based, Human; settings: EC50, 16 h
Experimental: as §1

[1] = test system: histone modifications in 2102EP cells; test: Mass spectrometry analysis of histone modifications (Mod Spec); format: cell-based, Human
Experimental: 2102EP cells were treated with the EC50 concentrations for Quisinostat, JIB-04, Chaetocin, MZ-1, LP99, PRT4165, GSK343 and DMSO as solvent control. The cells were harvested via trypsinization after 16 h. The mass spectrometric analysis of histone modifications was outsourced to the Mod Spec service by Active Motif (Carlsbad, CA, USA). Histone extraction and mass spectrometric analysis was performed as described previously. Raw data were transformed into z-scores as the input. The heatmap was generated in R using ‘pheatmap’ with default settings and provided by Active Motif.

[2] = test system: transcriptome of 2102EP cells; test: RNA sequencing; format: cell-based, Human; settings: 16 h
Experimental: Transcriptome analysis has been performed as previously described at the core facility ‘Genomics & Transcriptomics’ (Prof. Dr. Karl Köhrer, Biomedical Research Center, Heinrich Heine University, Düsseldorf, Germany) and has been publicly shared via GEO (https://www.ncbi.nlm.nih.gov/geo/, GSE189472). RNA samples were quantified and measured as previously described. Statistical analyses were performed using the ‘Differential Expression in two groups’ tool (version 1.02) (Qiagen) and the resulting p values were corrected for multiple testing by false discovery rate (FDR). Accompanying PCA and heatmap were generated using Qlucore Omics Explorer 3.7 (Qlucore AB, Lund, Sweden). Values of solvent controls wereaveraged from the studies GSE189472, GSE190792 and GSE190022 [95].

[3] = test system: phosphorylated kinase targets in 2102EP cells; test: Proteome Profiler Human Phospho-Kinase Array; format: cell-based; settings: 16 h
Experimental: For the detection of phosphorylated kinase targets, the Proteome Profiler Human Phospho-Kinase Array Kit (R&D Systems, Abingdon, UK) was used according to the manufacturer’s instructions. The ChemiDoc Imaging System (Bio-Rad Laboratories, Feldkirchen, Germany) was used for detection. 2102EP cells were harvested after 16 h of treatment with the epi-drugs. Pixel density was analyzed using Fiji ImageJ 1.53c.

[4] = 2102EP cells, Mod Spec raw data
[5] = sorted data log2>±1.5, FDR p<0.05

Question: Which results are given for `Cc1cc(=O)n(C)c2cc(N3C(=O)CC[C@H](NS(=O)(=O)CC(C)C)[C@H]3c3ccc(Cl)cc3)ccc12` [LP99]?
Answer: EC50 (GCT cell lines): ≤ 50 µM; apoptosis induction in JAR (CC (JAR)): negligible; apoptosis induction in GCT72 (YST (GCT72)): negligible; apoptosis induction in 2102EP-R (2102EP-R): did not induce apoptosis; cell cycle phase accumulation in GCT cells (GCT cells): accumulated in the G0/G1 phase; H1.4: K25AC, % of peptide pool [1, 4]: 0.009028%; H1.4: K25ME1, % of peptide pool [1, 4]: 2.269%; H1.4: K25ME2, % of peptide pool [1, 4]: 0.02267%; H1.4: K25ME3, % of peptide pool [1, 4]: 0.00557%; H1.4: K25UN, % of peptide pool [1, 4]: 97.6933%; H2A1: K13AC, % of peptide pool [1, 4]: 0.01093%; H2A1: K13UN, % of peptide pool [1, 4]: 99.9891%; H2A1: K15AC, % of peptide pool [1, 4]: 0.001748%; H2A1: K15UB, % of peptide pool [1, 4]: 0%; H2A1: K15UN, % of peptide pool [1, 4]: 99.9983%; H2A3: K13AC, % of peptide pool [1, 4]: 0.03196%; H2A3: K13UN, % of peptide pool [1, 4]: 99.968%; H2A3: K15AC, % of peptide pool [1, 4]: 0.03362%; H2A3: K15UB, % of peptide pool [1, 4]: 0%; H2A3: K15UN, % of peptide pool [1, 4]: 99.9664%; H2A: K5AC, % of peptide pool [1, 4]: 12.5375%; H2A: K5UN, % of peptide pool [1, 4]: 87.4625%; H2A: K9AC, % of peptide pool [1, 4]: 1.353%; H2A: K9UN, % of peptide pool [1, 4]: 98.6475%; H2A: K36AC, % of peptide pool [1, 4]: 0.0347%; H2A: K36UN, % of peptide pool [1, 4]: 99.9653%; H3: K9AC, % of peptide pool [1, 4]: 0.6876%; H3: K9ME1, % of peptide pool [1, 4]: 38.1257%; H3: K9ME2, % of peptide pool [1, 4]: 23.7135%; H3: K9ME3, % of peptide pool [1, 4]: 2.367%; H3: K9UN, % of peptide pool [1, 4]: 35.1066%; H3: K14AC, % of peptide pool [1, 4]: 29.2531%; H3: K14UN, % of peptide pool [1, 4]: 70.7469%; H3: K18AC, % of peptide pool [1, 4]: 10.1375%; H3: K18ME1, % of peptide pool [1, 4]: 0.2014%; H3: K18UN, % of peptide pool [1, 4]: 89.6611%; H3: K23AC, % of peptide pool [1, 4]: 16.6835%; H3: K23ME1, % of peptide pool [1, 4]: 0.02213%; H3: K23UN, % of peptide pool [1, 4]: 83.2943%; H3: K56AC, % of peptide pool [1, 4]: 0.1265%; H3: K56ME1, % of peptide pool [1, 4]: 0.3038%; H3: K56UN, % of peptide pool [1, 4]: 99.5697%; H3: K64AC, % of peptide pool [1, 4]: 0.01464%; H3: K64UN, % of peptide pool [1, 4]: 99.9854%; H3: K79AC, % of peptide pool [1, 4]: 0.6828%; H3: K79ME1, % of peptide pool [1, 4]: 14.7289%; H3: K79ME2, % of peptide pool [1, 4]: 6.113%; H3: K79ME3, % of peptide pool [1, 4]: 8.372%; H3: K79UN, % of peptide pool [1, 4]: 70.1029%; H3: K122AC, % of peptide pool [1, 4]: 0.1106%; H3: K122UN, % of peptide pool [1, 4]: 99.8894%; H3: Q19ME1, % of peptide pool [1, 4]: 0.008159%; H3: Q19UN, % of peptide pool [1, 4]: 99.9918%; H3: Q55ME1, % of peptide pool [1, 4]: 0.125%; H3: Q55UN, % of peptide pool [1, 4]: 99.875%; H3: R42ME2, % of peptide pool [1, 4]: 2.022%; H3: R42UN, % of peptide pool [1, 4]: 97.9783%; H3: R49ME2, % of peptide pool [1, 4]: 5.836%; H3: R49UN, % of peptide pool [1, 4]: 94.1642%; H3R2UN: K4AC, % of peptide pool [1, 4]: 0.0493%; H3R2UN: K4ME1, % of peptide pool [1, 4]: 17.3555%; H3R2UN: K4ME2, % of peptide pool [1, 4]: 0.1607%; H3R2UN: K4ME3, % of peptide pool [1, 4]: 0.06122%; H3R2UN: K4UN, % of peptide pool [1, 4]: 82.3733%; H3R2UN: Q5ME1, % of peptide pool [1, 4]: 0.0589%; H3R2UN: Q5UN, % of peptide pool [1, 4]: 99.9411%; H3.1: K27AC, % of peptide pool [1, 4]: 1.848%; H3.1: K27ME1, % of peptide pool [1, 4]: 50.2872%; H3.1: K27ME2, % of peptide pool [1, 4]: 19.0002%; H3.1: K27ME3, % of peptide pool [1, 4]: 2.587%; H3.1: K27UN, % of peptide pool [1, 4]: 26.2781%; H3.1: K36AC, % of peptide pool [1, 4]: 0.1934%; H3.1: K36ME1, % of peptide pool [1, 4]: 15.1441%; H3.1: K36ME2, % of peptide pool [1, 4]: 47.7578%; H3.1: K36ME3, % of peptide pool [1, 4]: 20.1942%; H3.1: K36UN, % of peptide pool [1, 4]: 16.7105%; H3.3: K27AC, % of peptide pool [1, 4]: 4.526%; H3.3: K27M, % of peptide pool [1, 4]: 0%; H3.3: K27ME1, % of peptide pool [1, 4]: 50.6483%; H3.3: K27ME2, % of peptide pool [1, 4]: 13.3962%; H3.3: K27ME3, % of peptide pool [1, 4]: 4.205%; H3.3: K27UN, % of peptide pool [1, 4]: 27.2241%; H3.3: K36AC, % of peptide pool [1, 4]: 1.988%; H3.3: K36ME1, % of peptide pool [1, 4]: 13.5047%; H3.3: K36ME2, % of peptide pool [1, 4]: 50.9616%; H3.3: K36ME3, % of peptide pool [1, 4]: 19.8606%; H3.3: K36UN, % of peptide pool [1, 4]: 13.6847%; H4: K5AC, % of peptide pool [1, 4]: 6.718%; H4: K5UN, % of peptide pool [1, 4]: 93.2819%; H4: K8AC, % of peptide pool [1, 4]: 9.0591%; H4: K8UN, % of peptide pool [1, 4]: 90.9409%; H4: K12AC, % of peptide pool ([1]; 2102EP cells, Mod Spec raw data, histone H4 K12 acetylated): 5.085 % of peptide pool; H4: K12UN, % of peptide pool ([1]; 2102EP cells, Mod Spec raw data, histone H4 K12 unmodified): 94.9152 % of peptide pool; H4: K16AC, % of peptide pool ([1]; 2102EP cells, Mod Spec raw data, histone H4 K16 acetylated): 42.3745 % of peptide pool; H4: K16UN, % of peptide pool ([1]; 2102EP cells, Mod Spec raw data, histone H4 K16 unmodified): 57.6255 % of peptide pool; H4: K20AC, % of peptide pool ([1]; 2102EP cells, Mod Spec raw data, histone H4 K20 acetylated): 21.754 % of peptide pool; H4: K20ME2, % of peptide pool ([1]; 2102EP cells, Mod Spec raw data, histone H4 K20 dimethylated): 43.6517 % of peptide pool; H4: K20ME1, % of peptide pool ([1]; 2102EP cells, Mod Spec raw data, histone H4 K20 monomethylated): 4.449 % of peptide pool; H4: K20ME3, % of peptide pool ([1]; 2102EP cells, Mod Spec raw data, histone H4 K20 trimethylated): 1.292 % of peptide pool; H4: K20UN, % of peptide pool ([1]; 2102EP cells, Mod Spec raw data, histone H4 K20 unmodified): 28.8535 % of peptide pool; change of histone modifications of the expected mode of action (Mod Spec) ([1]; 2102EP, EC50, 16 h, vs solvent control): general decrease in histone acetylation; GJD3 Log2 fold change vs. DMSO [2, 5]: 3.31; GLIPR1L1 Log2 fold change vs. DMSO [2, 5]: -3.59; GOLGA6A Log2 fold change vs. DMSO [2, 5]: -4.35; MTRNR2L8 Log2 fold change vs. DMSO [2, 5]: 3.16; NCKAP1L Log2 fold change vs. DMSO [2, 5]: -3.90; TAC1 Log2 fold change vs. DMSO [2, 5]: 3.33; A1BG Log2 fold change vs. DMSO ([2]; unsorted data): 0.41; A1CF Log2 fold change vs. DMSO ([2]; unsorted data): 1.13; A2M Log2 fold change vs. DMSO ([2]; unsorted data): -0.80; CREB, STAT3 and STAT5 phosphorylation and total levels of β-Catenin and HSP60 [3]: decreased; ERK1/2 phosphorylation [3]: decreased
